Patent US20260216294A1, “BETA 2-ADRENERGIC RECEPTOR AGONISTS FOR TREATMENT OR PREVENTION OF MUSCLE WASTING” (ATROGI AB, priority 2023, published 2026)

How the values were obtained:
L6-myotubes [1] = assay: Measurement of intracellular cAMP levels in differentiated L6-myotubes (Biological Example 3); assay type: cell-based; conditions: for Emax at 10 µM: 0.25 h
Outline: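 Serum-starved differentiated L6 myotubes stimulated 15 min with test compound at 1×10^−5 M final (isoprenaline as reference) in HBSS with 1% BSA, 5 mM HEPES, 1 mM IBMX, pH 7.4. Cells EtOH-extracted, lysed, and intracellular cAMP measured by AlphaScreen.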

L6-myotubes [2] = assay: Glucose uptake in differentiated L6-myotubes (Biological Example 2); assay type: cell-based; conditions: for Emax at 10 µM: read-out: Biological example 2 (GU)
Outline: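 Differentiated L6 myotubes were serum-starved overnight in 0.5% fatty-acid-free BSA and then stimulated with compound or isoprenaline at 1×10^−5 M final. After 1 h 40 min cells were washed and re-dosed in glucose-free medium. Twenty minutes later, uptake of 50 nM ^3H-2-deoxyglucose over 10 min was measured by scintillation counting of NaOH lysates.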

[3] = intracellular cAMP in differentiated L6-myotubes, compound at 10 μM, activity relative to isoproterenol at 10 μM
[4] = glucose uptake in differentiated L6-myotubes, compound at 10 μM, activity relative to isoproterenol at 10 μM
[5] = intracellular cAMP, compound at 10 μM relative to isoproterenol at 10 μM
[6] = glucose uptake, compound at 10 μM relative to isoproterenol at 10 μM

Row | SMILES | Emax at 10 µM (L6-myotubes [1]; [3]) [%] | Emax at 10 µM (L6-myotubes [2]; [4]) [%] | also measured
1 | CC1(C)C[C@@H]([C@@H](O)c2cccc(Cl)c2)N1 [Compound 231] | < 25 | 25 to 50 | 
2 | COc1ccc(C[C@@H]2CC[C@H]([C@H](O)c3cccc(F)c3)N2)cc1 [Compound 373, (R)-{(2R,5S)-5-[(p-methoxyphenyl)methyl]-2-pyrrolidinyl}(m-fluorophenyl)methanol] | 25 to 50 | > 75 | 
3 | CC(C)(NC[C@H](O)c1cccc(F)c1)[C@H]1CC[C@@H](OCc2ccccc2)CC1 [Compound 280, (R)-1-(m-fluorophenyl)-2-{1-methyl-1-[(1s,4S)-4-(benzyloxy)cyclohexyl]ethylamino}-1-ethanol] | < 25 | > 75 | 
4 | CCC[C@H]1CCC[C@H]([C@@H](O)c2cccc(O)c2)N1 [Compound 155] |  |  | Emax at 10 µM (L6-myotubes [1]; [5]): < 25%; Emax at 10 µM (L6-myotubes [2]; [6]): < 25%
5 | O[C@@H](c1cccc(F)c1)C12CCC(CCCc3ccccc3)(CC1)N2 [Compound 535, (S)-(m-fluorophenyl){4-(3-phenylpropyl)-7-azabicyclo[[2.2.1]]hept-1-yl}methanol] | < 25 | 25 to 50 | 
6 | CC(=O)N[C@H]1CC[C@H](CCC(C)(C)NC[C@H](O)c2cncc(F)c2)CC1 [Compound 361, N-[(1R,4r)-4-{3-[(R)-2-(5-fluoro-3-pyridyl)-2-hydroxyethylamino]-3-methylbutyl}cyclohexyl] acetamide] | < 25 | > 75 | 
7 | CC(C)(CC[C@H]1CC[C@@H](C(=O)O)CC1)NC[C@H](O)c1cncc(F)c1 [Compound 347, (1S,4s)-4-{3-[(R)-2-(5-fluoro-3-pyridyl)-2-hydroxyethylamino]-3-methylbutyl} cyclohexanecarboxylic acid] | < 25 | > 75 | 
8 | CC12CC(C1)[C@@H]([C@H](O)c1cccc(Cl)c1)N2 [Compound 209] | < 25 | 25 to 50 | 
9 | CC(C)(CC[C@H]1CC[C@@H](O)CC1)NC[C@H](O)c1cccc(F)c1 [Compound 295, (R)-2-{1,1-dimethyl-3-[(1s,4R)-4-hydroxycyclohexyl]propylamino}-1-(m-fluorophenyl)-1-ethanol] | < 25 | > 75 | 
10 | O[C@H](c1cccc(F)c1)[C@H]1CC[C@@H](Cc2ccc(Cl)cc2)N1 [Compound 392, (R)-{(2R,5S)-5-[(p-chlorophenyl)methyl]-2-pyrrolidinyl}(m-fluorophenyl)methanol] | < 25 | > 75 | 
11 | CO[C@H]1CC[C@H](C[C@H]2CC[C@H]([C@@H](O)c3ccccc3F)N2)CC1 [Compound 338, (S)-[(2R,5R)-5-{[(1r,4R)-4-methoxycyclohexyl]methyl}-2-pyrrolidinyl](o-fluorophenyl)methanol] | < 25 | 50 to 75 | 
12 | CC1(C)CC[C@@H]([C@H](O)c2cccc(F)c2)N1 [Compound 144] |  |  | Emax at 10 µM (L6-myotubes [1]; [5]): < 25%; Emax at 10 µM (L6-myotubes [2]; [6]): < 25%
13 | O[C@@H](CNC[C@H]1CC[C@H](O)CC1)c1cccc(F)c1 [Compound 272, (R)-1-(m-fluorophenyl)-2-({[(1r,4R)-4-hydroxycyclohexyl]methyl}amino)-1-ethanol] | < 25 | 25 to 50 | 
14 | CC12CC(C1)[C@@H]([C@H](O)c1cccc(N)c1F)N2 [Compound 244, (R)-{(S)-1-methyl-2-azabicyclo[[2.1.1]]hex-3-yl}(3-amino-2-fluorophenyl)methanol] | < 25 | 50 to 75 | 
15 | CS(=O)(=O)Nc1ccc(CC23CCC([C@@H](O)c4cccc(F)c4)(CC2)N3)cc1 [Compound 474, (S)-(m-fluorophenyl)(4-{[p-(mesylamino)phenyl]methyl}-7-azabicyclo[[2.2.1]]hept-1-yl)methanol] | < 25 | 50 to 75 | 
16 | CCCCNCC(O)c1cc(Cl)c(N)c(C(F)(F)F)c1 (stereo not shown) [Compound 32, 1-[4-amino-3-chloro-5-(trifluoromethyl)phenyl] -2-(butylamino)-1-ethanol] |  |  | Emax at 10 µM (L6-myotubes [1]; [5]): 25 to 50%; Emax at 10 µM (L6-myotubes [2]; [6]): > 75%
17 | CO[C@H]1CC[C@@H](CCCNC[C@H](O)c2cccc(F)c2)CC1 [Compound 258, (R)-1-(m-fluorophenyl)-2-{3-[(1s,4R)-4-methoxycyclohexyl]propylamino}-1-ethanol] | 50 to 75 | > 75 | 
18 | CO[C@H]1CC[C@H](CNC[C@H](O)c2cncc(F)c2)CC1 [Compound 229, (R)-1-(5-fluoro-3-pyridyl)-2-({[(1r,4R)-4-methoxycyclohexyl]methyl}amino)-1-ethanol] | < 25 | 50 to 75 | 
19 | CC(C)(CC[C@H]1CC[C@H](O)CC1)NC[C@H](O)c1cncc(F)c1 [Compound 289, (R)-2-{1,1-dimethyl-3-[(1r,4S)-4-hydroxycyclohexyl]propylamino}-1-(5-fluoro-3-pyridyl)-1-ethanol] | < 25 | 25 to 50 | 

Row | SMILES | Emax at 10 µM (L6-myotubes [1]; [3]) [%] | Emax at 10 µM (L6-myotubes [2]; [4]) [%] | also measured
20 | O=C(N[C@H]1CC[C@H](CNC[C@H](O)c2cccc(F)c2)CC1)c1ccccc1 [Compound 315, N-[(1R,4r)-4-{[(R)-2-(m-fluorophenyl)-2-hydroxyethylamino]methyl}cyclohexyl] benzamide] | < 25 | > 75 | 
21 | O[C@@H](CNCC[C@H]1CC[C@H](O)CC1)c1cncc(F)c1 [Compound 294, (R)-1-(5-fluoro-3-pyridyl)-2-{2-[(1r,4R)-4-hydroxycyclohexyl]ethylamino}-1-ethanol] | < 25 | 25 to 50 | 
22 | CCCC(C)NCC(O)c1cccc(O)c1 (stereo not shown) [Compound 14, 1-(m-hydroxyphenyl)-2-(1-methylbutylamino)-1-ethanol] |  |  | Emax at 10 µM (L6-myotubes [1]; [5]): < 25%; Emax at 10 µM (L6-myotubes [2]; [6]): > 75%
23 | CCCC(C)NCC(O)c1cc(Cl)c(N)c(C(F)(F)F)c1 (stereo not shown) [Compound 33, 1-[4-amino-3-chloro-5-(trifluoromethyl)phenyl] -2-(1-methylbutylamino)-1-ethanol] |  |  | Emax at 10 µM (L6-myotubes [1]; [5]): > 75%; Emax at 10 µM (L6-myotubes [2]; [6]): 50 to 75%
24 | Oc1ccc(C(O)CNCCCC2CCCCC2)cc1 (stereo not shown) [Compound 21, 2-(3-cyclohexylpropylamino)-1-(p-hydroxyphenyl)-1-ethanol] |  |  | Emax at 10 µM (L6-myotubes [1]; [5]): < 25%; Emax at 10 µM (L6-myotubes [2]; [6]): > 75%
25 | CC1(NC[C@H](O)c2cccc(F)c2)CCC1 [Compound 83, (R)-1-(m-fluorophenyl)-2-(1-methylcyclobutylamino)-1-ethanol] |  |  | Emax at 10 µM (L6-myotubes [1]; [5]): 25 to 50%; Emax at 10 µM (L6-myotubes [2]; [6]): > 75%
26 | O[C@H](c1cccc(F)c1)[C@H]1CCC2(CCCC2)N1 [Compound 168] |  |  | Emax at 10 µM (L6-myotubes [1]; [5]): 25 to 50%; Emax at 10 µM (L6-myotubes [2]; [6]): 50 to 75%
27 | CC12CCC([C@H](O)c3cccc(F)c3)(CC1)N2 [Compound 179, (R)-(m-fluorophenyl)(4-methyl-7-azabicyclo[[2.2.1]]hept-1-yl)methanol] |  |  | Emax at 10 µM (L6-myotubes [1]; [5]): < 25%; Emax at 10 µM (L6-myotubes [2]; [6]): 50 to 75%
28 | CC(C)(C[C@H]1CC[C@@H](C(=O)O)CC1)NC[C@H](O)c1cncc(F)c1 [Compound 324, (1S,4s)-4-{2-[(R)-2-(5-fluoro-3-pyridyl)-2-hydroxyethylamino]-2-methylpropyl} cyclohexanecarboxylic acid] | < 25 | 25 to 50 | 
29 | CC(C)(C[C@H]1CC[C@H](NS(C)(=O)=O)CC1)NC[C@H](O)c1cccc(F)c1 [Compound 382] | 25 to 50 | > 75 | 
30 | COc1ccc(CC23CCC([C@@H](O)c4cccc(F)c4)(CC2)N3)cc1 [Compound 400, (S)-(m-fluorophenyl){4-[(p-methoxyphenyl)methyl]-7-azabicyclo[[2.2.1]]hept-1-yl}methanol] | < 25 | 50 to 75 | 
31 | CCC[C@H]1CCC[C@@H]([C@H](O)c2cccc(O)c2)N1 [Compound 122] |  |  | Emax at 10 µM (L6-myotubes [1]; [5]): < 25%; Emax at 10 µM (L6-myotubes [2]; [6]): 50 to 75%
32 | CCC[C@@H]1CC[C@H]([C@@H](O)c2cccc(O)c2)N1 [Compound 127, m-{(S)-[(2R,5R)-5-propyl-2-pyrrolidinyl] hydroxymethyl}phenol] |  |  | Biological example 3 (CAMP) (L6-myotubes [1]; [5]): − (if it less than 25% it is denoted with −); Biological example 2 (GU) (L6-myotubes [2]; [6]): + (if it is between 50 and 25% it is denoted with +)
33 | CC(C)(C[C@H]1CC[C@H](NC(=O)C2CC2)CC1)NC[C@H](O)c1cccc(F)c1 [Compound 432] | > 75 | > 75 | 
34 | CC(C)(CC[C@H]1CC[C@H](O)CC1)NC[C@H](O)c1cccc(F)c1 [Compound 290, (R)-2-{1,1-dimethyl-3-[(1r,4S)-4-hydroxycyclohexyl]propylamino}-1-(m-fluorophenyl)-1-ethanol] | < 25 | 25 to 50 | 
35 | CC12CC(C1)[C@@H]([C@H](O)c1ccccc1F)N2 [Compound 213] | < 25 | > 75 | 
36 | CC12CC(C1)[C@H]([C@@H](O)c1cccc(N)c1F)N2 [Compound 243, (S)-{(R)-1-methyl-2-azabicyclo[[2.1.1]]hex-3-yl}(3-amino-2-fluorophenyl)methanol] | < 25 | 50 to 75 | 
37 | CC1(C)CC[C@H]([C@@H](O)c2cccc(O)c2)N1 [Compound 111, m-{(S)-[(R)-5,5-dimethyl-2-pyrrolidinyl] hydroxymethyl}phenol] |  |  | Emax at 10 µM (L6-myotubes [1]; [5]): < 25%; Emax at 10 µM (L6-myotubes [2]; [6]): 50 to 75%
38 | CC(=O)N[C@H]1CC[C@H](CC(C)(C)NC[C@H](O)c2cccc(F)c2)CC1 [Compound 383] | 25 to 50 | > 75 | 
